Experimental data: patent US9079854B2 (priority 2007, dated 2015)
Entries after “also recorded” stand apart in the source; their conditions may differ. Where two headings read alike, the source gives them in different places.

Tests used:
[1] = biological target: T1, human CB2 (hCB2) receptor (Homo sapiens, UniProt P34972); test: CB2 binding assay, competitive binding of [3H]WIN 55212-2
T1 construct: expressed in transfected cells; host or cells: CHO (Chinese hamster ovary) cells, membranes
Outline: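 CHO cell membranes expressing hCB2 (15 μg protein) incubated 120 min at 37° C with 0.8 nM [3H]WIN 55212-2 in 50 mM HEPES/Tris pH 7.4, 5 mM MgCl2, 2.5 mM EGTA, 0.1% BSA; nonspecific binding with 10 μM WIN 55212-2. Filtration and scintillation counting; compounds at 1 μM, reported as % inhibition of control specific binding.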

hCB2 receptor = biological target: T2, hCB2 receptor (Homo sapiens, UniProt P34972); test: CB2 functional assay, [35S]GTP-γ-S binding; format: biochemical
T2 construct: purchased ES-111-MG; host or cells: CHO membrane extracts
Procedure: A dose response curve was generated at eight concentrations in duplicate on CB1 and CB2 in light of reference agonists.
Membranes (CB1, ES-110-MG or CB2, ES-111-MG) are mixed with GDP (volume:volume) and incubated for at least […] on ice. In parallel, […] are mixed with the beads (volume:volume) just before starting the reaction. The following reagents are successively added in the wells of an Optiplate: 50 μl of ligand, 20 μl of the membranes:GDP mix, 10 μl of assay buffer for agonist testing and 20 μl of the […]: beads mix. The plates are covered with a topseal, shaken on an orbital shaker for 2 min, and then incubated between 30 to 60 min at room temperature. Then the plates are centrifuged for 10 min at 2000 rpm, incubated at room temperature between 1 to 4 hours and counted for 1 min with a PerkinElmer TopCount reader.
Functional activity for acyl hydrazone was evaluated using [^35S]GTP-γ-S assay in CHO membrane extracts expressing recombinant hCB1 receptor or hCB2 receptor. The assay relies on the binding of [^35S]GTP-γ-S, a radiolabeled nonhydrolyzable GTP analogue, to the G protein upon binding of an agonist of the G-protein-coupled receptor. In this system, agonists stimulate [^35S]GTP-γ-S binding whereas neutral antagonist have no effect and inverse agonists decrease [^35S]GTP-γ-S basal binding.
CB1 and CB2 assay data are presented as the mean of two determinations. […] For replicate determinations, the maximum variability tolerated in the test was of ±20% around the average of the replicates.

[2] = biological target: T3, human CB1 (hCB1) receptor (Homo sapiens, UniProt P21554); test: CB1 binding assay, competitive binding of [3H]CP 55940; parameters: % Inhibition of Control Specific Binding CB1: concentration or dose not given beside the values
T3 construct: expressed in transfected cells; host or cells: CHO (Chinese hamster ovary) cells, membranes
Outline: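 CHO cell membranes expressing human CB1 (25 μg protein) incubated 120 min at 37 °C with 0.5 nM [3H]CP 55940 in Tris-HCl pH 7.4 buffer with MgCl2, EDTA, 0.3% BSA. Filtration and scintillation counting; compound tested at 1 μM, given as percent inhibition of control specific binding.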

exploratory behavior = test: Open field chamber testing; format: in vivo, rat; conditions: 15 mg/kg i.p.; versus vehicle; scored for 60 minutes; rats
Procedure: The automated open-field chamber (Med Associates ENV-515 Test Environment, St. Albans, Vt.) 43.2×43.2×30.5 cm (L×W×H) equipped with three pairs of 16 infrared arrays that continually monitored the animal's movement was used to determine potential CNS effects of compound of Example 6 and the vehicle in naïve rats. Rats were individually tested 15 min after i.p. drug administration. The infrared beams were set 2.5 cm apart horizontally and at a height of 3 cm above the floor, with the rearing array set at 12 cm from the floor. The area in the box was divided into 4 equal quadrants (zones), with data collected within each quadrant and across quadrants (zone entries). An ambulatory movement was defined as a motion of at least 5 cm and was coded by quadrant. Vertical movements were counted when the rat moved vertically a minimum of 12 cm from the floor. Zone entries were defined as an entry into a zone (from another zone). Entry into a zone was counted when the rat was far enough into the zone to break 2 sets of photoelectric beams for the new zone beams during an ambulatory movement.

T2 sequence (P34972 whole entry): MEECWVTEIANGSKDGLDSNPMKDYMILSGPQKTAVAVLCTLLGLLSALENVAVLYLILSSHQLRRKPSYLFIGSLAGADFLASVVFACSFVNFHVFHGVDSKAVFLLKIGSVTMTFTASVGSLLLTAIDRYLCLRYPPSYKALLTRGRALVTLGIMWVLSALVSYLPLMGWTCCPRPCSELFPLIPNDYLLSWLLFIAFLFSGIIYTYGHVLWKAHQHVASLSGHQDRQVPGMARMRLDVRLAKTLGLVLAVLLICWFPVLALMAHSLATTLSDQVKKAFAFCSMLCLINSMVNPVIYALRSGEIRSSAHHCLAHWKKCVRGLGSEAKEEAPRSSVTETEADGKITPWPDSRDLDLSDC
T1 sequence (P34972 whole entry): as above
T3 sequence (P21554 whole entry): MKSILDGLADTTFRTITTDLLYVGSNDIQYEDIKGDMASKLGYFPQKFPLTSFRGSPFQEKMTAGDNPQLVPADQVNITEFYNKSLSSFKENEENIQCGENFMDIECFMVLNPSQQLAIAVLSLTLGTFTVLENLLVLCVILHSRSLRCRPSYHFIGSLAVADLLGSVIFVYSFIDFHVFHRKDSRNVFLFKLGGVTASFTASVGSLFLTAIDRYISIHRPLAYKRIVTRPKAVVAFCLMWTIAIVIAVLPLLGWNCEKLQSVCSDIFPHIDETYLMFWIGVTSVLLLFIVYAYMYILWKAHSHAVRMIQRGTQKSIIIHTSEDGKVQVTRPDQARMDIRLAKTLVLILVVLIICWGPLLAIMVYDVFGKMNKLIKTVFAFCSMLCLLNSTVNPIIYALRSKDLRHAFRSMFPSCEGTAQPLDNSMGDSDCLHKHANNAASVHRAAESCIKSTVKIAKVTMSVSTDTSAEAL

## CCCCCCN1C(=O)/C(=N\NC(=O)c2ccccc2)c2ccccc21 [Example 6, Benzoic acid [1-n-hexyl-2-oxo-1,2-dihydro-indol-3-ylidene]-hydrazide]
[1]; CB2, Test Concentration 1.0E−05 (MD)
  % Inhibition of Control Specific Binding: 93%
[1]; CB2, Test Concentration 1.0E−05 (MD), 1st determination
  % of Control Specific Binding 1st: −1.5%
[1]; CB2, Test Concentration 1.0E−05 (MD), 2nd determination
  % of Control Specific Binding 2nd: 15.9%
[1]; CB2, Test Concentration 1.0E−05 (MD), mean
  % of Control Specific Binding Mean: 7.2%
[1]; Table 4, concentration not given
  % Inhibition of Control Specific Binding CB2: 93%
[1]; read-out: % inhibition hCB2 receptor, at 1 μM, specific binding of [3H]-WIN55212-2, CHO membranes
  inhibition at 1 µM: 92.8 ± 8.7%
[1]; read-out: % inhibition hCB2 receptor, at 10 μM, specific binding of [3H]-WIN55212-2
  inhibition at 10 µM: 92.8 ± 8.7%
hCB2 receptor; CB2 Functional Activity
  % Activation Average: 68.81%
  Compound Activity: Agonist
hCB2 receptor; CB2 Functional Activity, read-out: EC50 (nM) for GTP Binding
  EC50: 63.4 nM
hCB2 receptor; CB2 receptor selectivity, [35S]GTP-γ-S
  ratio EC50(CB1)/EC50(CB2): 14
hCB2 receptor; Table 7, mean of two determinations, read-out: [35S]GTP-γ-S (hCB2) EC50 (nM ± SEM)
  EC50: 63.4 ± 1.3 nM
hCB2 receptor; Table 7, relative to the efficacy of CP55940
  Emax: 68.8%
hCB2 receptor; Table 9, mean of two determinations, read-out: [35S]GTP-γ-S hCB2 EC50 (nM ± SEM)
  EC50: 63.4 ± 1.3 nM
hCB2 receptor; Table 9, relative to the efficacy of CP 55,940
  Emax: 68.8%
hCB2 receptor; functional activity, [35S]GTP-γ-S
  times less potent compared to the reference compound CP55,940: seven
[2]; CB1, Test Concentration 1.0E−05 (MD)
  % Inhibition of Control Specific Binding: 96%
[2]; CB1, Test Concentration 1.0E−05 (MD), 1st determination
  % of Control Specific Binding 1st: 4.5%
[2]; CB1, Test Concentration 1.0E−05 (MD), 2nd determination
  % of Control Specific Binding 2nd: 4.5%
[2]; CB1, Test Concentration 1.0E−05 (MD), mean
  % of Control Specific Binding Mean: 4.5%
[2]; Table 3, concentration not given
  % Inhibition of Control Specific Binding CB1: 96%
[2]; at 1 μM, specific binding of [3H]-CP55940, CHO membranes
  inhibition at 1 µM: 95.5%
[2]; at 10 μM, specific binding of [3H]-CP55940
  inhibition at 10 µM: 95.5%
Exploratory behavior
  exploratory behavior in the open field (distance traveled, ambulatory time, vertical activity, zone entries): No significant differences; also recorded: did not decrease the exploratory behavior
